In patent US20230341376A1, “SYSTEM, METHOD, AND COMPUTER-ACCESSIBLE MEDIUM FOR PHENOTYPING OF SINGLE CELLS WITH MULTIPLEXED VIBRATIONAL PROBES” (The Trustees of Columbia University in the City of New York, priority 2020, published 2023):

What was measured:
Format in all cases: cell-based, human
SKBR3 cells = test system: SKBR3 cells
Procedure: Metabolic probes including ^13C-EdU, 17-ODYA, and ^13C-AA were first supplemented to cell culture media for 60 hours to report various metabolic activities. For endocytic profiling, cells were subsequently incubated with three Rdots for 6 hours. Then, seven functionalized Rdots cocktail was pooled to stain cell surface proteins simultaneously. Prior to the spectral acquisition, AltQ2 probe was added to live cells. Single-cell Raman spectra of SKBR3 cells were acquired with 1 second acquisition time (see FIG. 17C). To decipher the contribution of individual Raman probes, the amide region (1500 cm^-1-1700 cm-^1) and cell-silent region (2000 cm^-1 - 2300 cm-^1) were linearly decomposed by using the reference spectral profiles of each probe (see FIG. 17D) (See, e.g., References A54-A56). The unmixing procedure was applied on single-cell Raman spectra (see FIG. 17E). […] (See, e.g., References A25, A26).
Cell-based profiling techniques are increasingly being used in drug discovery to monitor cell response upon drug treatment. (See, e.g., Reference A57). Optical techniques have unique advantages by allowing non-invasive, fast, and cost-effective readouts of individual living cells. (See, e.g., Reference A58). However, most high-content profiling assays have been primarily focusing on partial aspects of biological phenotypes. (See, e.g., Reference A59). Integration of different phenotypes will facilitate a more systematic understanding of the mechanism of drug candidates. (See, e.g., Reference A60). […] Trastuzumab is a HER2-targeted monoclonal antibody developed for clinical use in breast cancer patients. (See, e.g., Reference A61). Hydrogen peroxide (H2O2) is well known as a major member of reactive oxygen species (ROS). (See, e.g., Reference A62). Cycloheximide (CHX) exerts its action by inhibiting protein synthesis. (See, e.g., Reference A63). Cyto D causes the disruption of actin filaments and inhibition of actin polymerization. (See, e.g., Reference A64). Cisplatin is an inhibitor of DNA synthesis and cell growth. (See, e.g., Reference A65). After labeling with 14 Raman probes, single-cell Raman spectra of SKBR3 cells under treatment of five chemotherapy reagents, as well as untreated cells, were acquired through the automated whole-cell Raman micro-spectroscopy (see FIG. 18B).
SKBR3 cells were seeded onto 18 mm round quartz coverslips (Electron Microscopy Sciences, 103302-258) and then maintained in a culture environment for 48 hours to reach 90% confluence. Then the culture medium was replaced with ^13C-AA DMEM containing 200 µM 17-ODYA and 50 nM ^13C-EdU for 60 hours. For the drug testing samples, cells were subject to the drug treatment simultaneously (see Table 5 for specific drug concentration). Followed by three rounds of gentle washing of DPBS buffer, cells were subsequently incubated with three-colored endocytic Rdots at 1 nM in serum-free DMEM medium. 6 hours later, cell surface markers were stained with seven-colored Rdots at a concentration of 10 nM for 1 hour on ice. After that, cells were washed extensively with DPBS buffer with 5 mM MgCl2 and 1% BSA. Then cells were rinsed with DPBS buffer with 5 mM MgCl2 and 40 µM AltQ2 before mounting onto the microscope for Raman measurement. Spectral unmixing was performed through the Least Square Method (LSM).

HeLa cells = assay: Endocytic pathway profiling by Rdots of various sizes and colors, whole-cell Raman
Procedure: Upon exposure to mammalian cells, PS beads have been reported to enter cells through endocytosis, subsequently reaching the endosomal components. (See, e.g., Reference A40). Although some of the endocytic pathways have been well established, their exact biological roles are still under investigation. (See, e.g., References A41, A42). […] (See, e.g., Reference A43). Motivated by the independent size and color tunability of Rdots, cellular endocytosis pathways were profiled by incubating cells with Rdots of different sizes and colors. Rdots of 40 nm (Rdot2207), 70 nm (Rdot2118), and 120 nm (Rdot2092) in diameter were incubated with HeLa cells, and their Raman peaks are designed to be mutually resolvable.
For whole-cell Raman acquisition, the corresponding Raman intensity is proportional to the number of internalized Rdots, since the Raman intensity of Rdots remains stable after exposed to cellular microenvironments. We therefore quantified the peak intensity to profile the differential mechanism of Rdots internalization. To this end, cells were first pre-treated with one of three inhibitors, chlorpromazine (CPZ), nystatin, and cytochalasin D (Cyto D). CPZ is a cationic amphiphilic drug used to block clathrin-mediated endocytosis. (See, e.g., Reference A44). Nystatin can decompose cholesterol and inhibit caveolae-mediated endocytosis. (See, e.g., Reference A45). Cyto D inhibits the polymerization of actin filaments, which is required for receptor-mediated endocytosis in mammalian cells. (See, e.g., Reference A46). Additionally, cells were incubated at 4° C. to inhibit energy-dependent endocytosis. Then endocytosis was examined by the quantification of internalized Rdots at the single-cell level. A distinctive response of Rdots internalization was detected when treated with various inhibitors (FIGS. 16E-G), and the radar plot was presented to highlight the fold change after inhibition (FIG. 16H). […] (See, e.g., Reference A47). […] (See, e.g., References A48, A49).
FIGS. 16A-16M show exemplary illustration of an exemplary endocytic profiling assay by multi-color Rdots. […] The peak position of each Rdots was indicated by the arrow. Excitation: 532 nm (400 mW), acquisition time: 1 s. FIGS. 16B-16D show exemplary SRS images of cellular distribution for three endocytic Rdots, (B) 40 nm (C) 70 nm (D) 120 nm, scale bar: 10 µm. […] Excitation: 532 nm (400 mW), acquisition time: 1 s. FIGS. 16J-L show exemplary histogram showing the Raman intensity distribution of three endocytic Rdots uptake by HeLa, SKBR3, and COS-7 cells, FIG. 16J - 40 nm, FIG. 16K - 70 nm, and FIG. 16L - 120 nm.

A375 cells = conditions: for metabolic heterogeneity of lipid synthesis activity (Cv of single-cell d-PA metabolites): compared to untreated control group; for d-AA metabolites (protein synthesis activity): compared to untreated group
Procedure: Deuterated branch-chained amino acids and deuterated palmitic acid were supplemented to the cell culture media for 24 hours in order to probe the flux of protein and lipid synthesis. There can be several considerations for choosing these two types of probes. First, protein and lipids can be the major components of cell dry mass and their metabolism can be tightly regulated. Second, Raman spectra of the metabolites of these two deuterated probes in cells can be shifted to the cell silent region (e.g., 2000 — 2300 cm-1), which facilitated the detection with high sensitivity in a background-free manner. (See, e.g., FIG. 8). Third, compared to non-branch-chained counterparts, branch-chained amino acids were chosen for their narrower Raman spectra in order to have better spectral differences from that of deuterated palmitic acid. (See, e.g., Reference 23; and FIGS. 9). With the high-throughput instrumentation efforts described above, Raman spectra of these two types of probes can be acquired as quickly as 0.5 s for the entire cell with a satisfactory signal to noise ratio. (See, e.g., FIG. 1B).
Previously, the single-cell metabolic measurement has been challenging. Previously-used methods, such as mass spectrometry, can be difficult to reveal single-cell level heterogeneity. (See, e.g., Reference 24). […] However, due to the complex nature of the Raman spectra, it can be difficult to assign each Raman peak in the fingerprint region to a specific chemical compound. (See, e.g., Reference 25). In addition, when dimension reduction approaches such as PCA can be applied, which can be a common practice for data analysis, the physical meanings of the dimension reduced data can be further lost. On the other hand, since the metabolic probes used have distinctive spectra, it can be straightforward to decompose the spectra in order to obtain the concentration information of each individual probe. Here the exemplary MCR-ALS method, (see, e.g., References 26-28), was used to decompose the composite spectra into the pure spectra of the two metabolic probes, and concentration profiles could thereby be obtained.
To validate the ability to reveal metabolic activity, the exemplary MAP was applied to cultured cells treated with drugs that inhibit known metabolism. Five drugs were used as the reference: cycloheximide and blasticidin, both inhibit protein translation; Triacsin C can be an inhibitor of long fatty acyl CoA synthetase; etoposide and cisplatin can be DNA replication inhibitors. MAP probes and individual drugs were added to the seeded A375 cells and allowed to incubate for 24 hours, after which the cells were fixed and Raman spectra were taken from each individual of the fixed single cells. At least 3 batches of each drug were prepared to ensure model robustness and reproducibility. MCR-ALS on the Raman spectra taken with MAP were applied, from which the concentration profiles of d-AA metabolites and d-PA metabolites in every single cell were calculated. (See, e.g., FIG. 2A).
Since MAP measures the metabolic activity in single cells, its potential in quantitatively characterizing single-cell metabolic heterogeneity was determined. The coefficients of variation (“Cv”) of the single-cell d-PA metabolites and d-AA metabolites distribution were calculated from the metabolic inhibitor-treated cells. (See, e.g., Reference 32). The Cv value can be a normalized measure of the dispersion of the single-cell metabolic activity distribution and thus it can be used as a parameter to quantify the metabolic heterogeneity. […] (See, e.g., FIG. 2C). […] (See, e.g., FIG. 2D).
For MAP samples, cells were first seeded in a 24-well plate at 50% confluency with cell culture media and allowed to adhere overnight. Then the culture media was replaced with MAP culture media (see Table 1 below) and cells were further cultured in MAP media for 24 hours. […]

[1] = drug 60 hours, normalized to control

C=C1[C@@H](C)[C@H]2[C@H](Cc3ccccc3)NC(=O)[C@]23[C@H](OC(C)=O)/C=C/[C@@](C)(O)C(=O)[C@@H](C)C/C=C/[C@H]3[C@@H]1O [Cyto D, cytochalasin D]
CD44 surface expression (Rdot2079-CD44) (SKBR3 cells; drug 60 hours): suppresses CD44 surface expression
internalization of AltQ2 (SKBR3 cells; drug 60 hours): increased internalization
DNA synthesis (13C-EdU probe) (SKBR3 cells; [1]): inhibits
protein synthesis (13C-AA probe) (SKBR3 cells; [1]): inhibits
cellular internalization of Rdots (SKBR3 cells; long-term drug treatment): promote cellular internalization of Rdots
cellular uptake of Rdots, incubation with inhibitor for 60 hours (HeLa cells; 60 hours): markedly promoted
Rdots internalization, short-term inhibitor incubation (HeLa cells; short-term incubation (6 hours per FIG. 16 legend)): suppressed

OO [H2O2, Hydrogen peroxide]
cellular internalization of Rdots of 70 nm (SKBR3 cells; drug 60 hours): promoted
cellular internalization of Rdots of 120 nm (SKBR3 cells; drug 60 hours): promoted
fatty acid turnover phenotype (17-ODYA probe) (SKBR3 cells; drug 60 hours): retarding their turnover rate
internalization of AltQ2 (SKBR3 cells; drug 60 hours): increased internalization

CN(CC[C@H](N)CC(=O)N[C@H]1C=C[C@H](n2ccc(N)nc2=O)O[C@@H]1C(=O)O)C(=N)N [blasticidin]
metabolic heterogeneity of lipid synthesis activity (Cv of single-cell d-PA metabolites) (A375 cells; 24 hours drug): did not alter the lipid synthesis activity distribution
d-AA metabolites (protein synthesis activity) (A375 cells; drug plus MAP probes 24 hours): significant decrease

N.N.[Cl][Pt][Cl] [cisplatin]
metabolic heterogeneity of lipid synthesis activity (Cv of single-cell d-PA metabolites) (A375 cells; 24 hours drug): significantly decreased lipid synthesis heterogeneity

C[C@@H]1C[C@@H]([C@H](O)CC2CC(=O)NC(=O)C2)C(=O)[C@@H](C)C1 [cycloheximide]
metabolic heterogeneity of lipid synthesis activity (Cv of single-cell d-PA metabolites) (A375 cells; 24 hours drug): did not alter the lipid synthesis activity distribution
d-AA metabolites (protein synthesis activity) (A375 cells; drug plus MAP probes 24 hours): significant decrease
internalization of AltQ2 (SKBR3 cells; drug 60 hours): increased internalization
DNA synthesis (13C-EdU probe) (SKBR3 cells; [1]): interfere with the process other than protein synthesis such as DNA synthesis

COc1cc([C@@H]2c3cc4c(cc3[C@@H](O[C@@H]3O[C@@H]5CO[C@@H](C)O[C@H]5[C@H](O)[C@H]3O)[C@H]3COC(=O)[C@H]23)OCO4)cc(OC)c1O [etoposide]
metabolic heterogeneity of lipid synthesis activity (Cv of single-cell d-PA metabolites) (A375 cells; 24 hours drug): significantly decreased lipid synthesis heterogeneity

C[C@@H]1[C@H](O)[C@@H](C)/C=C/C=C/CC/C=C/C=C/C=C/C=C/C(O[C@H]2O[C@H](C)[C@@H](O)[C@H](N)[C@@H]2O)CC2O[C@](O)(CC(O)C(O)CCC(O)CC(O)CC(O)CC(=O)O[C@H]1C)CC(O)C2C(=O)O (stereo partly drawn) [nystatin]
internalization of 120 nm Rdots after inhibitor pre-treatment (HeLa cells; Rdot2092 (120 nm)): inhibited
internalization of 70 nm Rdots after inhibitor pre-treatment (HeLa cells; Rdot2118 (70 nm)): inhibited
internalization of 40 nm Rdots after inhibitor pre-treatment (HeLa cells; Rdot2207 (40 nm)): unaltered or even slightly higher
Rdots uptake (40 nm, 70 nm and 120 nm Rdots) after inhibitor pre-treatment (HeLa cells; single-cell Raman intensity of internalized Rdots): decreased as size increases

CCC/C=C/C/C=C/C=C/C=N/NN=O [triacsin C, Triacsin C]
metabolic heterogeneity of protein synthesis activity (Cv of single-cell d-AA metabolites) (A375 cells; 24 hours drug, compared to control group): unaltered Cv value
metabolic heterogeneity of lipid synthesis activity (Cv of single-cell d-PA metabolites) (A375 cells; 24 hours drug): did not change the metabolic heterogeneity
d-PA metabolites (lipid synthesis activity) (A375 cells; drug plus MAP probes 24 hours, compared to untreated cells): significant loss
d-AA metabolites (protein synthesis activity) (A375 cells; drug plus MAP probes 24 hours): decrease in protein synthesis activity
